Source: paper PMC8510269, “A Simple Method of Synthesis of 3-Carboxy-2,2,5,5-Tetraethylpyrrolidine-1-oxyl and Preparation of Reduction-Resistant Spin Labels and Probes of Pyrrolidine Series” (Molecules, 2021)
Like-named read-outs stand apart in the source and are kept apart here.

Assays:
[1] = Decay of nitroxides in tissue homogenates (brain, kidney, liver, heart; EPR); type: in vitro ADME, mice; conditions: nitroxide 0.2 mM
Experimental: (§1) The measurements of kinetics of nitroxide decay in blood and tissue homogenates were performed using an Elexsys E540 X-band spectrometer in a 50 µL glass capillary for 0.2 mM solutions, with the following spectrometer settings: frequency, 9.87 GHz; centerfield, 350.6 mT; sweep range, 10 mT; microwave power, 2.0 mW; modulation amplitude, 0.1 mT; time constant, 10.24 ms; and conversion time, 20.48 ms.
(§2) The stock solutions of the nitroxides 25 and 31 in water ([…]) were prepared, and pH was adjusted to 7.0 with NaOH. A total of 2 μL of the nitroxide solution was added to 98 μL of the blood or tissue homogenate, giving a nitroxide concentration equal to 0.2 mM. The resulting mixture of nitroxide with blood or tissue homogenate was transferred to the glass capillary (50 μL) and the latter was placed into the EPR resonator. The decay of the double integral of the EPR spectrum was followed to obtain the kinetics.
Male five-month-old C57BL/6 mice were obtained from the Breeding Experimental Animal Laboratory of the Institute of Cytology and Genetics (ICG), Siberian Division of the Russian Academy of Sciences (Novosibirsk, Russia). All the experiments were carried out according to Animal Care Regulations of the Institute of Cytology and Genetics (ICG), Novosibirsk. […]

[2] = Reduction of nitroxides with ascorbate in the presence of glutathione (EPR kinetics); type: physicochemical; conditions: nitroxide 0.3–0.4 mM, ascorbate 100–300 mM, 50 mM phosphate buffer, pH 7.4, 25 °C, glutathione 2 mM
Experimental: The EPR spectra in water were recorded on a Bruker ER-200D-SRC spectrometer in 50 µL glass capillary for 0.2–0.4 mM radical solutions degassed via bubbling with argon. Spectrometer settings: frequency, 9.87 GHz; microwave power, 5.0 mW; modulation amplitude, 0.05 mT; time constant, 50–100 ms; and conversion time, 5.12 ms. […] All the solutions were deoxygenated with argon, carefully and quickly mixed in a small tube to attain final concentrations (nitroxide, 0.2–04 mM; GSH, 2 mM; and ascorbate, 100–300 mM) and were placed into an EPR capillary (50 μL). The capillary was sealed on both sides and placed into the EPR resonator. The decay of amplitude of the low-field component of the EPR spectrum was followed to obtain the kinetics. The initial part of the decay curves (up to 200 min) was used for fitting. Kinetics of the decay was fitted to a monoexponential function to calculate the first-order rate constants. Then, these constants were divided by the concentration of ascorbic acid to calculate the second-order reaction constants (Figure S3). Partition coefficients in a water–octanol mixture were estimated from the amplitudes of the EPR spectra of a nitroxide in water after extensive shaking with different portions of added octanol and separation using centrifugation.

[3] = Partition coefficient octanol/water estimated from EPR amplitudes; type: physicochemical; conditions: ratio of concentrations in octanol to water; distilled water
Experimental: The EPR spectra in water were recorded on a Bruker ER-200D-SRC spectrometer in 50 µL glass capillary for 0.2–0.4 mM radical solutions degassed via bubbling with argon. Spectrometer settings: frequency, 9.87 GHz; microwave power, 5.0 mW; modulation amplitude, 0.05 mT; time constant, 50–100 ms; and conversion time, 5.12 ms. For kinetic measurements in water, stock solutions of nitroxide, ascorbic acid and glutathione in phosphate buffer (5 mM, pH 7.4) were prepared, and pH was adjusted to 7.4 with NaOH or HCl. All the solutions were deoxygenated with argon, carefully and quickly mixed in a small tube to attain final concentrations (nitroxide, 0.2–04 mM; GSH, 2 mM; and ascorbate, 100–300 mM) and were placed into an EPR capillary (50 μL). The capillary was sealed on both sides and placed into the EPR resonator. The decay of amplitude of the low-field component of the EPR spectrum was followed to obtain the kinetics. The initial part of the decay curves (up to 200 min) was used for fitting. Kinetics of the decay was fitted to a monoexponential function to calculate the first-order rate constants. Then, these constants were divided by the concentration of ascorbic acid to calculate the second-order reaction constants (Figure S3). Partition coefficients in a water–octanol mixture were estimated from the amplitudes of the EPR spectra of a nitroxide in water after extensive shaking with different portions of added octanol and separation using centrifugation.

[4] = Decay of nitroxides in murine blood (EPR); type: in vitro ADME, mice; conditions: nitroxide 0.2 mM
Experimental: as §1, §2
Male five-month-old C57BL/6 mice were obtained from the Breeding Experimental Animal Laboratory of the Institute of Cytology and Genetics (ICG), Siberian Division of the Russian Academy of Sciences (Novosibirsk, Russia). All the experiments were carried out according to Animal Care Regulations of the Institute of Cytology and Genetics (ICG), Novosibirsk. Animals were sacrificed by decapitation, blood was collected into a microcentrifuge tube with heparin (final concentration 5%), gently rocked by hand and snap-frozen with liquid nitrogen immediately after collection. Organ tissue (brain, heart, liver and kidney) was excised on ice, rinsed with ice-cold 10 mM PBS (pH 7.4), sheared with scissors and homogenized in PBS (1/1 by weight) on ice using electric homogenizer fitted with a Teflon head. The homogenates were then additionally mixed with PBS (1/1 by weight, final dilution 1/3) to decrease viscosity for further aspiration into glass capillaries, and snap-frozen in liquid nitrogen. […]

[5] = literature value, cited from earlier work
[6] = parameters: method as in PMID 25348344; conditions: cited from earlier work

Row | Compound | melting point [°C] | kred × 10^4 (second-order rate constant for the initial rate of reduction with ascorbate) [2] [M^−1 s^−1] | Kp (partition coefficient octanol/water) [3] | other results
1 | CCC1(CC)CC(C(=O)OC)C(CC)(CC)N1O.Cl (stereo not shown) | 148 to 150 |  |  | 
2 | CCC1(CC)CC(C(=O)O)C(CC)(CC)N1[O] (stereo not shown) [Nitroxide 1, 3-Carboxy-2,2,5,5-tetraethylpyrrolidine-1-oxyl] |  | 3.3 ± 0.5 | 270 | kred × 10^4 (second-order rate constant of reduction with ascorbate) ([5]; ref 9): 20 ± 10 M^−1 s^−1; kred × 10^4 (second-order rate constant of reduction with ascorbate) ([5]; ref 14): ≤ 10 M^−1 s^−1; kred × 10^4 (second-order rate constant of reduction with ascorbate) ([5]; ref 45): 12.5 ± 0.3 M^−1 s^−1; Decay in cytosolic extract compared with trityl radical [6]: slower decay in cytosolic extract than trityl radical
3 | CCC1=[N+]([O-])C(CC)(CC)C(C(=O)O)C1 (stereo not shown) [Nitroxide 8, 3-Carboxy-2,2,5-triethyl-3,4-dihydro-2H-pyrrole 1-oxide] | 145 to 146 |  |  | 
4 | CCC1(CC)CC(C(=O)O)C(CC)(CC)N1 (stereo not shown) [Nitroxide 15, 3-Carboxy-2,2,5,5-tetraethylpyrrolidine] | 113 to 114 |  |  | 

Further lines, with some results ahead:

Row | melting point [°C] | kred × 10^4 (second-order rate constant for the initial rate of reduction with ascorbate) [2] [M^−1 s^−1] | Kp (partition coefficient octanol/water) [3] | Compound | other results
5 |  | 2.4 ± 0.4 | 13 | 3-(2-Triphenylphosphonio)acetamidomethyl-2,2,5,5-tetraethylpyrrolidine-1-oxyl chloride [Nitroxide 28] | Decay in homogenate of brain ([1]; mouse brain homogenate): Faster decay of 28 as compared to 22; Decay in homogenate of liver ([1]; mouse liver homogenate): Faster decay of 28 as compared to 22; Time to plateau of decay in blood [4]: 10 min; Decrease of concentration in blood ([4]; plateaus in 10 min): ca. 10%
6 |  | 4.1 ± 0.2 | 5.5 | CCC1(CC)CC(CN)C(CC)(CC)N1[O] (stereo not shown) [Nitroxide 22, 3-Aminomethyl-2,2,5,5-tetraethylpyrrolidine-1-oxyl] | Decay in blood (in words) ([4]; 30 min): No decay
7 |  | 2.5 ± 0.4 | 70 | CCC1(CC)CC(CNC(=O)CN2CCCC2)C(CC)(CC)N1[O] (stereo not shown) [Nitroxide 29, 3-(2-(Pyrrolidin-1-yl)acetamidomethyl)-2,2,5,5-tetraethylpyrrolidine-1-oxyl] | 
8 |  | 2.2 ± 0.5 | 30 | CCC1(CC)CC(CN2CCCCC2)C(CC)(CC)N1[O] (stereo not shown) [Nitroxide 30, 3-((Piperidin-1-yl)methyl)-2,2,5,5-tetraethylpyrrolidine-1-oxyl] | 
